# Assay results: the supplement of paper PMC10307832
# Legend:
# Experiment in all cases: relative viability (nuclei count vs DMSO), 5 days (fraction); higher = more cells survive
# [1] = test system: LU99A
# Method in brief: (§1)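 Relative viability was taken as the ratio of nuclei in treated wells to nuclei in vehicle wells. Lung cancer cell lines in 1536-well plates received compounds by pin tool one day after seeding, either one drug alone or a fixed anchor-drug dose plus five library-drug doses (not always all listed) in √10 steps. Nuclei were counted on 4× images after 5 days of treatment, and values are medians of duplicate plates.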
# [2] = test system: BEN
# Method in brief: as §1
# [3] = test system: NCI-H1355
# Method in brief: as §1
# [4] = test system: HCC-78
# Method in brief: as §1
# [5] = test system: NCI-H1975
# Method in brief: as §1
# [6] = test system: LCLC-97TM1
# Method in brief: as §1
# [7] = test system: NCI-H596
# Method in brief: as §1
# [8] = test system: NCI-H1651
# Method in brief: as §1
# [9] = test system: NCI-H1666
# Method in brief: as §1
# [10] = test system: PC-3 [JPC-3]
# Method in brief: as §1
# [11] = test system: NCI-H661
# Method in brief: as §1
# [12] = test system: NCI-H650
# Method in brief: as §1
# [13] = test system: ChaGo-K-1
# Method in brief: as §1
# [14] = test system: LC-2-ad
# Method in brief: as §1
# [15] = test system: NCI-H2087
# Method in brief: as §1
# [16] = test system: LXF-289
# Method in brief: as §1
# [17] = test system: NCI-H838
# Method in brief: as §1
# [18] = test system: SK-MES-1
# Method in brief: as §1
# [19] = test system: LK-2
# Method in brief: as §1
# [20] = test system: NCI-H358
# Method in brief: as §1
# [21] = test system: NCI-H1944
# Method in brief: as §1
compound,measurement,setting,value
Nc1ccn([C@@H]2O[C@H](CO)[C@@H](O)[C@@H]2O)c(=O)n1 [Cytarabine] + CC(C)C[C@H](NC(=O)[C@H](Cc1ccccc1)NC(=O)c1cnccn1)B(O)O [Bortezomib] (partner 0.002 µM),relative viability,[1]; first compound 0.005 µM,1.14
same,relative viability,[1]; first compound 0.01581 µM,1.24
same,relative viability,[1]; first compound 0.05 µM,1.26
same,relative viability,[1]; first compound 0.1581 µM,1.01
same,relative viability,[1]; first compound 0.5 µM,1.03
same,relative viability,[2]; first compound 0.005 µM,0.667
same,relative viability,[2]; first compound 0.01581 µM,0.742
same,relative viability,[2]; first compound 0.05 µM,0.413
same,relative viability,[2]; first compound 0.1581 µM,0.282
same,relative viability,[2]; first compound 0.5 µM,0.233
same,relative viability,[3]; first compound 0.005 µM,1.02
same,relative viability,[3]; first compound 0.01581 µM,1.18
same,relative viability,[3]; first compound 0.05 µM,0.927
same,relative viability,[3]; first compound 0.1581 µM,0.644
same,relative viability,[3]; first compound 0.5 µM,0.389
same,relative viability,[4]; first compound 0.005 µM,0.569
same,relative viability,[4]; first compound 0.01581 µM,0.444
same,relative viability,[4]; first compound 0.05 µM,0.445
same,relative viability,[4]; first compound 0.1581 µM,0.378
same,relative viability,[4]; first compound 0.5 µM,0.252
same,relative viability,[5]; first compound 0.005 µM,0.293
same,relative viability,[5]; first compound 0.01581 µM,0.323
same,relative viability,[5]; first compound 0.05 µM,0.276
same,relative viability,[5]; first compound 0.1581 µM,0.23
same,relative viability,[5]; first compound 0.5 µM,0.213
same,relative viability,[6]; first compound 0.005 µM,0.277
same,relative viability,[6]; first compound 0.01581 µM,0.349
same,relative viability,[6]; first compound 0.05 µM,0.132
same,relative viability,[6]; first compound 0.1581 µM,0.084
same,relative viability,[6]; first compound 0.5 µM,0.0888
same,relative viability,[7]; first compound 0.005 µM,0.788
same,relative viability,[7]; first compound 0.01581 µM,0.853
same,relative viability,[7]; first compound 0.05 µM,0.904
same,relative viability,[7]; first compound 0.1581 µM,0.62
same,relative viability,[7]; first compound 0.5 µM,0.704
same,relative viability,[8]; first compound 0.005 µM,1.09
same,relative viability,[8]; first compound 0.01581 µM,0.916
same,relative viability,[8]; first compound 0.05 µM,0.808
same,relative viability,[8]; first compound 0.1581 µM,0.7
same,relative viability,[8]; first compound 0.5 µM,0.663
same,relative viability,[9]; first compound 0.005 µM,0.7
same,relative viability,[9]; first compound 0.01581 µM,0.705
same,relative viability,[9]; first compound 0.05 µM,0.741
same,relative viability,[9]; first compound 0.1581 µM,0.353
same,relative viability,[9]; first compound 0.5 µM,0.318
same,relative viability,[10]; first compound 0.005 µM,0.811
same,relative viability,[10]; first compound 0.01581 µM,0.795
same,relative viability,[10]; first compound 0.05 µM,0.779
same,relative viability,[10]; first compound 0.1581 µM,0.503
same,relative viability,[10]; first compound 0.5 µM,0.511
same,relative viability,[11]; first compound 0.005 µM,0.997
same,relative viability,[11]; first compound 0.01581 µM,0.667
same,relative viability,[11]; first compound 0.05 µM,0.596
same,relative viability,[11]; first compound 0.1581 µM,0.381
same,relative viability,[11]; first compound 0.5 µM,0.246
same,relative viability,[12]; first compound 0.005 µM,0.606
same,relative viability,[12]; first compound 0.01581 µM,0.486
same,relative viability,[12]; first compound 0.05 µM,0.349
same,relative viability,[12]; first compound 0.1581 µM,0.223
same,relative viability,[12]; first compound 0.5 µM,0.209
same,relative viability,[13]; first compound 0.005 µM,0.707
same,relative viability,[13]; first compound 0.01581 µM,0.559
same,relative viability,[13]; first compound 0.05 µM,0.443
same,relative viability,[13]; first compound 0.1581 µM,0.437
same,relative viability,[13]; first compound 0.5 µM,0.499
same,relative viability,[14]; first compound 0.005 µM,1.01
same,relative viability,[14]; first compound 0.01581 µM,0.888
same,relative viability,[14]; first compound 0.05 µM,0.954
same,relative viability,[14]; first compound 0.1581 µM,0.434
same,relative viability,[14]; first compound 0.5 µM,0.145
same,relative viability,[15]; first compound 0.005 µM,0.631
same,relative viability,[15]; first compound 0.01581 µM,1.01
same,relative viability,[15]; first compound 0.05 µM,0.84
same,relative viability,[15]; first compound 0.1581 µM,0.573
same,relative viability,[15]; first compound 0.5 µM,0.338
same,relative viability,[16]; first compound 0.005 µM,0.887
same,relative viability,[16]; first compound 0.01581 µM,0.936
same,relative viability,[16]; first compound 0.05 µM,0.901
same,relative viability,[16]; first compound 0.1581 µM,0.474
same,relative viability,[16]; first compound 0.5 µM,0.258
same,relative viability,[17]; first compound 0.005 µM,0.802
same,relative viability,[17]; first compound 0.01581 µM,0.615
same,relative viability,[17]; first compound 0.05 µM,0.506
same,relative viability,[17]; first compound 0.1581 µM,0.242
same,relative viability,[17]; first compound 0.5 µM,0.21
Cc1sc2c(c1C)C(c1ccc(Cl)cc1)=N[C@@H](CC(=O)OC(C)(C)C)c1nnc(C)n1-2 [JQ1] + Cc1nc(NC(=O)N2CCC[C@H]2C(N)=O)sc1-c1ccnc(C(C)(C)C(F)(F)F)c1 [Alpelisib] (partner 2 µM),relative viability,[1]; first compound 0.04 µM,0.537
same,relative viability,[1]; first compound 0.1265 µM,0.544
same,relative viability,[1]; first compound 0.4 µM,0.424
same,relative viability,[1]; first compound 1.265 µM,0.307
same,relative viability,[1]; first compound 4 µM,0.235
same,relative viability,[2]; first compound 0.04 µM,0.953
same,relative viability,[2]; first compound 0.1265 µM,0.918
same,relative viability,[2]; first compound 0.4 µM,0.594
same,relative viability,[2]; first compound 1.265 µM,0.332
same,relative viability,[2]; first compound 4 µM,0.273
same,relative viability,[3]; first compound 0.04 µM,0.856
same,relative viability,[3]; first compound 0.1265 µM,0.84
same,relative viability,[3]; first compound 0.4 µM,0.71
same,relative viability,[3]; first compound 1.265 µM,0.508
same,relative viability,[3]; first compound 4 µM,0.438
same,relative viability,[18]; first compound 0.04 µM,0.769
same,relative viability,[18]; first compound 0.1265 µM,0.68
same,relative viability,[18]; first compound 0.4 µM,0.733
same,relative viability,[18]; first compound 1.265 µM,0.456
same,relative viability,[18]; first compound 4 µM,0.27
same,relative viability,[4]; first compound 0.04 µM,0.336
same,relative viability,[4]; first compound 0.1265 µM,0.34
same,relative viability,[4]; first compound 0.4 µM,0.281
same,relative viability,[4]; first compound 1.265 µM,0.234
same,relative viability,[4]; first compound 4 µM,0.252
same,relative viability,[5]; first compound 0.04 µM,0.662
same,relative viability,[5]; first compound 0.1265 µM,0.424
same,relative viability,[5]; first compound 0.4 µM,0.578
same,relative viability,[5]; first compound 1.265 µM,0.348
same,relative viability,[5]; first compound 4 µM,0.335
same,relative viability,[19]; first compound 0.04 µM,1.05
same,relative viability,[19]; first compound 0.1265 µM,1.06
same,relative viability,[19]; first compound 0.4 µM,0.55
same,relative viability,[19]; first compound 1.265 µM,0.237
same,relative viability,[19]; first compound 4 µM,0.16
same,relative viability,[6]; first compound 0.1265 µM,0.233
same,relative viability,[6]; first compound 0.4 µM,0.232
same,relative viability,[6]; first compound 1.265 µM,0.133
same,relative viability,[6]; first compound 4 µM,0.128
same,relative viability,[7]; first compound 0.04 µM,0.481
same,relative viability,[7]; first compound 0.1265 µM,0.499
same,relative viability,[7]; first compound 0.4 µM,0.437
same,relative viability,[7]; first compound 1.265 µM,0.41
same,relative viability,[7]; first compound 4 µM,0.343
same,relative viability,[8]; first compound 0.04 µM,0.882
same,relative viability,[8]; first compound 0.1265 µM,0.886
same,relative viability,[8]; first compound 0.4 µM,0.589
same,relative viability,[8]; first compound 1.265 µM,0.462
same,relative viability,[8]; first compound 4 µM,0.411
same,relative viability,[9]; first compound 0.04 µM,0.802
same,relative viability,[9]; first compound 0.1265 µM,1.04
same,relative viability,[9]; first compound 0.4 µM,0.696
same,relative viability,[9]; first compound 1.265 µM,0.507
same,relative viability,[9]; first compound 4 µM,0.444
same,relative viability,[10]; first compound 0.04 µM,1.06
same,relative viability,[10]; first compound 0.1265 µM,1.03
same,relative viability,[10]; first compound 0.4 µM,1.09
same,relative viability,[10]; first compound 1.265 µM,0.775
same,relative viability,[10]; first compound 4 µM,0.608
same,relative viability,[11]; first compound 0.04 µM,0.524
same,relative viability,[11]; first compound 0.1265 µM,0.529
same,relative viability,[11]; first compound 0.4 µM,0.71
same,relative viability,[11]; first compound 1.265 µM,0.549
same,relative viability,[11]; first compound 4 µM,0.465
same,relative viability,[20]; first compound 0.04 µM,0.761
same,relative viability,[20]; first compound 0.1265 µM,1.05
same,relative viability,[20]; first compound 0.4 µM,0.93
same,relative viability,[20]; first compound 1.265 µM,0.515
same,relative viability,[20]; first compound 4 µM,0.527
same,relative viability,[12]; first compound 0.04 µM,1.11
same,relative viability,[12]; first compound 0.1265 µM,0.715
same,relative viability,[12]; first compound 0.4 µM,0.707
same,relative viability,[12]; first compound 1.265 µM,0.377
same,relative viability,[12]; first compound 4 µM,0.257
same,relative viability,[14]; first compound 0.04 µM,0.953
same,relative viability,[14]; first compound 0.1265 µM,0.794
same,relative viability,[14]; first compound 0.4 µM,0.54
same,relative viability,[14]; first compound 1.265 µM,0.289
same,relative viability,[14]; first compound 4 µM,0.217
same,relative viability,[15]; first compound 0.04 µM,1.08
same,relative viability,[15]; first compound 0.4 µM,0.811
same,relative viability,[15]; first compound 1.265 µM,0.625
same,relative viability,[15]; first compound 4 µM,0.438
same,relative viability,[16]; first compound 0.04 µM,1.02
same,relative viability,[16]; first compound 0.1265 µM,0.983
same,relative viability,[16]; first compound 0.4 µM,0.97
same,relative viability,[16]; first compound 1.265 µM,0.718
same,relative viability,[16]; first compound 4 µM,0.634
same,relative viability,[17]; first compound 0.04 µM,1.03
same,relative viability,[17]; first compound 0.1265 µM,0.698
same,relative viability,[17]; first compound 0.4 µM,0.882
same,relative viability,[17]; first compound 1.265 µM,0.291
same,relative viability,[17]; first compound 4 µM,0.263
same,relative viability,[21]; first compound 0.04 µM,0.709
same,relative viability,[21]; first compound 0.1265 µM,0.722
same,relative viability,[21]; first compound 0.4 µM,0.715
same,relative viability,[21]; first compound 1.265 µM,0.544
same,relative viability,[21]; first compound 4 µM,0.397
